Read-outs that look alike come from different tables or passages of the source. Each block holds one compound with its values, some of them ahead of it.
Assays:
[1] = target: T1, GST-BPTF dual PHD finger-bromodomain (Homo sapiens, UniProt Q12830); assay: BPTF pull down assay with H3K4 methylated peptides; type: binding; details: 68 μM drug
T1 construct: The dual PHD finger-bromodomain (residues 2583-2751) from the human BPTF (gi:31322942); made in house; host or cells: E. coli BL21-AI
Description: Certain embodiments of the invention relate to the use of a “pull down” assay to characterize the binding of candidate compounds to the target mark. A general schema for such an assay as it applies to BPTF is shown in FIG. 4 and described in Example 5. Briefly, the GST-labeled PHD finger-bromodomain of BPTF was incubated with the candidate compound and H3K4me0, me1, me2 or me3 peptides that were coupled to streptavidin-labeled dynabeads through a biotin molecule on the peptide. After washing with an appropriate buffer, bound protein was eluted from the beads and assessed by SDS-PAGE and optionally Western blot. One skilled in the art will appreciate that this assay can be readily adapted to other readers/erasers and histone marks.
The full-length human BPTF construct was obtained from C. David Allis of the Laboratory of Chromatin Biology, Rockefeller University (Li et al., 2006, ibid). The dual PHD finger-bromodomain (residues 2583-2751) from the human BPTF (gi:31322942) was cloned into a pDEST15 vector using Gateway® cloning technology allowing for an N-terminal GST tag (Life Technologies). Over-expression of the GST-BPTF dual PHD finger-bromodomain was induced in BL21-AI™ chemically competent E. coli cells using LB medium supplemented with 1 mM IPTG and 0.2% L-arabinose for 2 hours in a 37° C. shaking incubator. GST-BPTF dual PHD finger-bromodomain was purified using Glutathione Sepharose 4B media (GE Healthcare Life Sciences) and dialyzed against PBS (Life Technologies) overnight.
The peptide pull-down experiment was performed essentially as previously described (Ruthenburg et al., 2011, Cell, 145(5):692-706.). Fifty microliters of M-280 streptavidin-coupled Dynabeads® (Life Technologies) were dispensed into 1.5 mL microtubes and washed 3×50 μL in PBS. The beads were then incubated with C-terminally biotinylated H3K4me0, me1, me2 or me3 peptides 21 amino acids long (Anaspec) rotating for 1 hour at 4° C. under saturating conditions. The beads were washed 3×100 μL in HBS-TD (10 mM Na-HEPES, 150 mM NaCl, 0.005% Tween-20, 2 mM DTT) and incubated with 6.8 μM of GST-BPTF along with either 68 μM of drug in a 1:100 DMSO to PBS solution or carrier alone rotating for 3 hours at 4° C. The beads were then washed 10×200 μL in HBS-TD. The protein was eluted using 2×LDS sample buffer (Life Technologies) and 1× reducing agent (Life Technologies) at 85° C. for 10 minutes. Samples were subjected to SDS-PAGE and bands were visualized using either SimplyBlue stain (Life Technologies) or GST antibody (Santa Cruz). Quantification of bands was made using ImageJ software.

[2] = system: SU-DHL-9 (MLL2 mutated) tumours; assay: SU-DHL-9 mouse xenograft model; type: in vivo; details: eight days, day nine
Description: NOD/SCID/γ^null (NSG) mice were bred at the local BCCRC animal facility. To establish primary tumors, male NSG mice were inoculated with 1×10^7 cells of the human diffuse histiocytic lymphoma cell line SU-DHL-9 in 50 μl PBS in the flank area. After development of s.c. tumors, mice were sacrificed and small fragments of the tumors (˜20 mg) were transplanted s.c. into the right flank of anesthetized six-ten weeks old male NSG recipient mice using 13 G trocar needles. Treatment was initiated once the tumors became palpable. Tumourlength and width was determined by caliper and tumourvolume was calculated by the modified ellipsoidal formula as […].
Compounds were diluted in a mixture of 50% DMSO and 50% polyethylene glycol 200. Eight tumor-bearing mice per group were administered by intraperitoneal injections daily over a period of eight days with either compounds at doses of 1 mg/kg or 4 mg/kg (Compound 3; NSC 127763), 4 mg or 12 mg/kg (Compound 2; NSC 304107) or the vehicle for control. Body weight was recorded every two days, tumoursize every four days and mice were monitored for any other additional adverse effects. Experimental animals were sacrificed at day nine, tumourvolumes were determined and the significance of differences was determined by Student's t-test after normalizing to the initial tumourvolume.

[3] = system: SU-DHL-9 (MLL2 homozygous indel mutant) cell line; assay: alamarBlue cell proliferation assay, SU-DHL-9 cell line; type: cell-based, human; details: for activity at 10 µM: Homo sapiens, 48 hours, normalized to carrier-treated control, SU-DHL-9, read-out: % Cell Proliferation; for activity against the MLL2 double LoF mutant cell line: SU-DHL-9, in words; for activity as worded in SAR analysis (selective toxicity against SU-DHL-9): in words, restates Tables 3 and 4
Description: Cell line DOHH2 was obtained from DSMZ. Pfeiffer was obtained from ATCC. SU-DHL-9 was obtained from Martin Dyer (University of Leicester, UK).
Compounds were initially solubilized in DMSO at a concentration of 10 mM. […] Ninety microliters of cells maintained at a concentration of 4×10^5 cells/mL were dispensed into wells of a MICROTEST™ 96-well Assay Plate, Optilux™ (BD). Ten microliters of the 100 μM compound solution were then added to the cells resulting in a final compound concentration of 10 μM. Each compound was tested in triplicate. […] Compounds were incubated with the cells in a 37° C. incubator with 5% CO2, humidified atmosphere for 48 hours before being subjected to the alamarBlue® cell proliferation assay (Life Technologies). Raw fluorescent units were corrected for background noise and normalized to the carrier-treated control.

[4] = system: DoHH-2, OCI-LY3, WSU-DLCL2 (all wild-type for MLL2); assay: alamarBlue cell proliferation assay, MLL2 wild-type cell lines; type: cell-based; details: for activity against wild-type cells: in words
Description: Diffuse large B-cell lymphoma cell lines were maintained in RPMI medium 1640 (Life Technologies) supplemented with 10% (v/v) fetal bovine serum (Life Technologies) and 1% penicillin/streptomycin (Life Technologies) in a 37° C. incubator with 5% CO2, humidified atmosphere. Cell line DOHH2 was obtained from DSMZ. Pfeiffer was obtained from ATCC. SU-DHL-9 was obtained from Martin Dyer (University of Leicester, UK).
Compounds were initially solubilized in DMSO at a concentration of 10 mM. This compound solution was further diluted 1:100 in RPMI medium 1640 to a final concentration of 100 μM. Ninety microliters of cells maintained at a concentration of 4×10^5 cells/mL were dispensed into wells of a MICROTEST™ 96-well Assay Plate, Optilux™ (BD). Ten microliters of the 100 μM compound solution were then added to the cells resulting in a final compound concentration of 10 μM. Each compound was tested in triplicate. Ten microliters of a 1:100 DMSO to RPMI medium 1640 solution were also added to 90 μL of cells as a carrier control. Furthermore, each plate included wells containing only RPMI medium 1640 to serve as a background noise control as well as cells that were completely untreated. Compounds were incubated with the cells in a 37° C. incubator with 5% CO2, humidified atmosphere for 48 hours before being subjected to the alamarBlue® cell proliferation assay (Life Technologies). Raw fluorescent units were corrected for background noise and normalized to the carrier-treated control.
The activity of Compound 3 in vitro was investigated further using the cell lines DoHH-2, OCI-LY3, WSU-DLCL2 (all wild-type for MLL2) and SU-DHL9. In addition, the dose response for Compound 2 was investigated in cell lines mutant for MLL2 or both MLL2 and EZH2. The dose response for Compound 3 was investigated in a MLL2 mutant cell line. Methods were as described for Example 3. Cell-line WSU-DLCL2 was obtained from DSMZ and OCI-Ly lines 3 was obtained from Louis Staudt (US National Institutes of Health).

[5] = system: SU-DHL-9 (EZH2 wildtype, MEF2B wildtype, MLL2 indel); assay: Cell viability of lymphoma cell lines, SU-DHL-9 (CBX2 compound); type: cell-based, human; details: SU-DHL-9, in words
Description: (§1) Compound 51 (NSC2540) was tested for its effect on the viability of four lymphoma cell lines in vitro using standard methods. The cell lines tested were DoHH-2, WSU-DLCL2, DB and SU-DHL-9 (EZH2 wildtype, MEF2B wildtype, MLL2 indel).

[6] = system: WSU-DLCL2 Cells (EZH2 mutation Y641F); assay: Cell viability of lymphoma cell lines, WSU-DLCL2; type: cell-based, human; details: WSU-DLCL2, in words
Description: (§2) Compound 50 was tested for its effect on the viability of three lymphoma cell lines in vitro using standard methods. The cell lines tested were: DoHH-2 (wildtype for EZH2, MEF2B and MLL2); WSU-DLCL2 (EZH2 mutation Y641F (wildtype for MEF2B and MLL2)) and DB (EZH2 mutation Y641N, the MEF2B mutation D83V and three mutations in MLL2 (two of which lead to a truncated protein after residue Q2736 and the third allele has a 1 base pair deletion at residue P480)).
as §1

HCC202 (CRL-2316) = assay: Viability of breast cancer cell lines, HCC202; type: cell-based; details: in words
Description: (§3) Compounds 50 and 51 were tested for their effect on the viability of four breast cancer cell lines in vitro using standard methods. The cell lines tested were: MCF-7, MDA-MB-231, HCC202 (CRL-2316) and HCC1500 (CRL-2329).

[7] = system: DoHH2 Cells (wildtype for EZH2, MEF2B and MLL2); assay: Cell viability of lymphoma cell lines, DoHH-2; type: cell-based; details: DoHH-2, in words
Description: as §2, §1

HCC1500 (CRL-2329) = assay: Viability of breast cancer cell lines, HCC1500; type: cell-based; details: in words
Description: as §3

MDA-MB-231 = assay: Viability of breast cancer cell lines, MDA-MB-231; type: cell-based; details: MDA-MB-231, in words
Description: as §3

[8] = system: WSU-DLCL2 human diffuse large cell lymphoma tumours; assay: WSU-DLCL2 mouse xenograft model; type: in vivo; details: evaluation at day 12
Description: WSU-DLCL2 tumourfragments were transplanted subcutaneously into the flank of male NSG mice. Mice were 9.0-9.3 weeks at transplantation and treatment was started when the mice were between 12.9 and 13.1 weeks. 8 mice were used per group and treatment was daily for ten days with evaluation at day 12. Tumoursize determined by caliper every four days, tumourvolume calculated by length×width^2/2.
The groups of mice were treated with vehicle (control), 1 mg/kg Compound 50 or 4 mg/kg Compound 50 by intraperitoneal injection. Vehicle was 50% DMSO/50% PEG-400.
WSU-DLCL2 tumourfragments were transplanted subcutaneously into the flank of male NSG mice. Mice were 5.3-9.4 weeks at transplantation and treatment was started when the mice were between 8.6 and 12.7 weeks. 8 mice were used in the control group and 6 mice were used in the Compound 51 treated group. Treatment was daily for ten days with evaluation at day 12. Tumoursize determined by caliper every four days, tumourvolume calculated by length×width^2/2.
The groups of mice were treated with vehicle (control) or Compound 51 by intraperitoneal injection at 4 mg/kg for the first 5 days and 2 mg/kg for the subsequent 5 days. Vehicle was 50% DMSO/50% PEG-400.

[9] = system: DB (EZH2 mutation Y641N, MEF2B mutation D83V, three mutations in MLL2); assay: Cell viability of lymphoma cell lines, DB; type: cell-based; details: in words
Description: as §2

[10] = 6.8 μM GST-BPTF, GST antibody staining

binding of H3K4me1 with BPTF [1, 10]: able to stabilize the binding | binding of H3K4me3 with BPTF [1, 10]: diminished binding | Densitometry value, H3K4me3 + compound ([1]; without compound 2545): 4227 | Densitometry value, H3K4me1 + compound ([1]; without compound 9350): 13335
SMILES: O=C1c2ccccc2C(=O)c2c(NC(=O)C(Cl)CCl)cccc21 (stereo not shown) [Compound 3, 2,3-didhloro-N-(9,10-dioxo-9,10-dihydro-anthracen-1-yl)-propionamide]
median tumour growth ([2]; 4 mg/kg intraperitoneal daily, untreated control 563%): 362% | activity at 10 µM ([3]; Table 4, scaffold B): < 10% | activity against the MLL2 double LoF mutant cell line [3]: active | activity as worded in SAR analysis (selective toxicity against SU-DHL-9) [3]: active | effect on cells where MLL2 was wild-type ([4]; DoHH-2, OCI-LY3, WSU-DLCL2): no obvious effect | activity against wild-type cells [4]: inactive

binding of H3K4me2 with BPTF [1, 10]: able to stabilize the binding | binding of H3K4me3 with BPTF [1, 10]: diminished binding
SMILES: CN(C)CCC(=O)c1ccc(Cl)cc1Cl [Compound 2, 1-(2,4-dichloro-phenyl)-3-dimethylamino-propan-1one]
median tumour growth ([2]; 12 mg/kg intraperitoneal daily, untreated control 1755%): 1305% | activity at 10 µM ([3]; Table 3, scaffold A): < 10% | activity against the MLL2 double LoF mutant cell line [3]: active | activity as worded in SAR analysis (selective toxicity against SU-DHL-9) [3]: active | activity against wild-type cells [4]: inactive

SMILES: OC(c1cc(-c2ccc(Cl)c(Cl)c2)nc2ccccc12)C1CCCCN1 (stereo not shown) [Compound 51]
effect on viability [5]: able to decrease viability | effect on viability [6]: able to decrease viability | effect on viability (HCC202 (CRL-2316)): able to decrease viability | effect on viability [7]: able to decrease viability | effect on viability (HCC1500 (CRL-2329)): able to decrease viability | effect on viability (MDA-MB-231): able to decrease viability | effect on tumour volume ([8]; intraperitoneal 4 mg/kg for 5 days then 2 mg/kg for 5 days, p=0.0125): able to significantly reduce tumourvolume

SMILES: O=C(CBr)c1cc(-c2ccccc2)nc2c(Cl)cc(Cl)cc12 [Compound 50]
effect on viability [6]: highest activity | effect on viability [7]: reduced the viability | effect on viability [9]: reduced the viability | effect on tumour volume ([8]; 1 mg/kg or 4 mg/kg intraperitoneal daily for ten days, p=0.0047 control vs 4 mg/kg): able to reduce tumour volume

Source: patent US9552457B2, “Reprogramming effector protein interactions to correct epigenetic defects in cancer” (BRITISH COLUMBIA CANCER AGENCY BRANCH, priority 2012, dated 2017)
